Values quoted from earlier work as cited in patent publication US20110105600A1, “SYNERGISTIC COMPOSITION OF (-)-HYDROXYCITRIC ACID WITH MONOTERPENE AND A METHOD TO ENHANCE SATIETY” (Glykon Technologies Group, LLC, priority 2009, published 2011).

Assays:
[1] = single large oral dose or two divided oral doses; animals fed a high-sugar diet
[2] = end of eight weeks; 2,800 mg/HCA per day in capsules
[3] = 40 oz of Mediterranean-style lemonade containing 596 mg d-limonene
[4] = not given; remark: listed apart in the source
[5] = tested on: rat
[6] = humans; dosage related to total body surface area

O=C(O)CC(O)(C(=O)O)C(O)C(=O)O (single isomer, unassigned; (-)) [HCA, (−)-hydroxycitric acid]
reduction in food consumption [1]: ≥ 10%
decrease in appetite [2]: approximately 15.6%
decrease in food intake (900 mg HCA dissolved in 100 ml tomato juice, 2-week period): 15-30%
reduction in appetite (900 mg/day, two weeks): 15-30%
weight loss (2-week period): no significant weight loss

C=C(C)[C@H]1CC=C(C)CC1 [d-limonene]
time to maximal blood concentrations of perillyl alcohol [3]: one
duration of slight fatigue and eructation ([4]; oral dose of 100 mg/kg): four
duration of mild satiety ([4]; oral dose of 100 mg/kg (bolus of 7 grams for a 70 kg human)): 10 h

CC(C)=CCC/C(C)=C/CO [geraniol]
acute oral LD50 [5]: 3,600 mg/kg body weight

CC(C)=CCC/C(C)=C\CO [nerol]
acute oral LD50 [5]: 4,500 mg/kg body weight

C=C(C)[C@@H]1CC=C(CO)CC1 [perillyl alcohol]
maximum tolerated dose [6]: 8400 mg/m^2 per day
